Assay [1] concerns the target T1, Adenosinetriphosphatase (Gallus gallus, UniProt Q9I8A2). The assay is described as follows: Compound was tested for inhibition of osteoclast vacuolar ATPase derived from chicken medullary bone.
The nature of assay [2]: Compound was tested at 9 uM for inhibition of V-ATPase mediated proton transport in membrane vesicles derived from chicken medullary bone.
For assay [3], the target named is T1, Adenosinetriphosphatase. The experiment in a line: Compound was tested for in vitro inhibition of osteoclast vacuolar acid pump. Format: functional.

IC50 and inhibition data for four compounds are collected here from ChEMBL document CHEMBL1133416, “Solid phase synthesis of diamides as potential bone resorption inhibitors” (Bioorg Med Chem Lett, 2000).

T1 sequence (Q9I8A2 whole entry): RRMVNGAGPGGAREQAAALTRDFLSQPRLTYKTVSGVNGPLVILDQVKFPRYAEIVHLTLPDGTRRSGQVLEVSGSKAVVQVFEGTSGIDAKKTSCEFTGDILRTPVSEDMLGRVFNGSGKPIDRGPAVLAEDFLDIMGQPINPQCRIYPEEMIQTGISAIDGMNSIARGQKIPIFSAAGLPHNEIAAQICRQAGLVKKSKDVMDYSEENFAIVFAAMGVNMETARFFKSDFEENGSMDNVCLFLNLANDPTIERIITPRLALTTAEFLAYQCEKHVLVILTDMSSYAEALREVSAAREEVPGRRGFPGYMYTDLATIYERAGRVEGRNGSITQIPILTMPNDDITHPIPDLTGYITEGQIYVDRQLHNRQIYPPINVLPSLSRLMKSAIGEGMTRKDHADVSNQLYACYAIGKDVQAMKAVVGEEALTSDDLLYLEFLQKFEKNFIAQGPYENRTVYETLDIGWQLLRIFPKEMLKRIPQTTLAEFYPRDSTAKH

`CO/C1=C\C(C)=C\[C@@H](C)[C@@H](O)[C@@H](C)C/C(C)=C/C=C/[C@H](OC)[C@@H]([C@@H](C)[C@@H](O)[C@H](C)[C@@]2(O)C[C@@H](O)[C@H](C)[C@@H](C(C)C)O2)OC1=O` [BAFILOMYCIN A1]: the IC50 against Adenosinetriphosphatase [1] was 30 nM. The same measure, in the same setting: next, `CO/C(=C\C=C\c1cc2cc(Cl)c(Cl)cc2[nH]1)C(=O)NC1CC(C)(C)NC(C)(C)C1`: 49 nM.

With `CC1(C)CC(NC(=O)/C=C/C=C/C(=O)Nc2ccc(Cl)c(Cl)c2)CC(C)(C)N1`, the inhibition in assay [2] came out at 51%. At Adenosinetriphosphatase [3], this compound displayed a concentration for half-maximal inhibition (IC50) of 1.5 µM. At Adenosinetriphosphatase [3], `CC1(C)CC(NC(=O)c2cccc(CC(=O)Nc3ccc(Cl)c(Cl)c3)c2)CC(C)(C)N1` returned an IC50 of 4.9 µM.
